From patent publication US20120034320A1, “Skin Penetration Composition” (DOMINION RESOURCES, UNLIMITED, LLC, priority 2010, published 2012)
Where a name gives a salt, the structure may show the parent alone.

What was measured:
fibromyalgia = assay: Physician observation, Patient A: fibromyalgia; format: in vivo, human; conditions: Relievz lotion twice daily to affected areas, pregabalin 400 mg daily, other products as previously used
[1] = system: sciatica and neuropathy (diabetic neuropathy); assay: Physician observation, Patient B: sciatica and diabetic neuropathy; format: in vivo, human; conditions: lotion applied to affected areas
Text: The patient continues to use Relievz™ lotion daily.

SMILES | relief of fibromyalgia symptoms (fibromyalgia) | pain and ambulation [1]
CNCC[C@H](Oc1cccc2ccccc12)c1cccs1 [Cymbalta®, duloxetine HCl] | no relief | –
NCC1(CC(=O)O)CCCCC1 [gabapentin] | – | continued pain
CC(C)C[C@H](CN)CC(=O)O [pregabalin] | no relief | –
CC(C)C[C@H](CN)CC(=O)O [pregabapentin] | – | continued pain
